Laboratory results taken from patent publication US20260207570A1, “OPTIMIZED DOSING OF LERIGLITAZONE” (MINORYX THERAPEUTICS S.L., priority 2022, published 2026).
Values joined by “and” are separate entries in the source; they are usually repeats but may differ in a detail not shown here. Equal entries are not always repeated. Where two headings read alike, the source gives them in different places.

Assay: Phase 1 single ascending dose (SAD) pharmacokinetics in healthy volunteers
Type: in vivo, human
Details: for Ka: estimated; for Vd / Tmax / Vd/F / AUC / Cmax / AUC(0-t): male, human, plasma, oral; for Vd: NCA estimate; for Vd/F: read-out: Vz/F
Experimental: Study design: A phase 1, randomized, double blind, placebo-controlled, single-center clinical study in 33 male healthy volunteers (HV) (19-54 years, 63.2-95.7 Kg) was conducted with leriglitazone HCl and divided in two parts: a single ascending dose (SAD) with three dose levels (30, 90 and 270 mg) in fasted conditions, followed with two dose levels (90 and 270 mg) in fed conditions; a multiple ascending dose (MAD) with a double-blind, parallel-design with two dose levels (135 and 270 mg) for 8 days and a separate cohort of subjects in an open-label parallel design with two dose levels (135 and 270 mg) including cerebrospinal fluid (CSF) collection on day 8. In the fasted conditions a fasting period of at least 4 hours was required before obtaining plasma samples. The food effect (FE) was assessed by comparing fasted with fed conditions (dosing after a high-fat breakfast per FDA definition with a calculated caloric content of 918 kcal). In the MAD part (fed) the medication was taken before a normal breakfast. Leriglitazone HCl was supplied by ChemConnection and an oral suspension of leriglitazone (20% w/v kleptose, 2% ethanol in 100 mM phosphate buffer pH=7.8) at 6 mg/ml was used in the study.
Blood, Urine and CSF sampling: In the SAD, blood samples were drawn at the following time points: pre-dose and 0.25, 0.5, 0.75, 1, 1.5, 2, 2.5, 3, 4, 5, 6, 8, 10, 12, 16, 24, 36, 48, 72, 96 and 120 hours post-dose. Urine was collected at pre-dose (within 12 hours prior to dosing) and over 0-6, 6-12, 12-24, 24-36, 36-48 hours post-dose collection intervals. In the MAD, blood samples were collected on day 1 at pre-dose and 0.25, 0.5, 0.75, 1, 1.5, 2, 2.5, 3, 4, 5, 6, 8, 10, 12, and 16 hours post-dose and at pre-dose and at 4 hours post-dose on day 2 to day 7, and on day 8 at pre-dose and 0.25, 0.5, 0.75, 1, 1.5, 2, 2.5, 3, 4, 5, 6, 8, 10, 12, 16, 24, 36, 48, 72, 96 and 120 hours post-dose. CSF were taken on day −1 and on day 8, at 4 hours post-dose.
Pharmacokinetic parameter calculation: PK parameters (Cmax, Tmax, t1/2, AUC0-t, CL/F, Vz/F, AUC0-t, RAUC, RCmax) were estimated using non-compartmental analysis (NCA) (Phoenix WinNonlin® Version 6.3).
Statistical analysis: Descriptive statistics for all relevant PK parameters: n, mean, minimum, median, maximum, geometric mean, and coefficient of variation (CV %); analysis of variance on Cmax and AUC to determine dose proportionality and food effect (FE).

- dose excreted in urine as free analyte (48-hour collection period): < 0.4%
- dose excreted in urine as the analyte, mostly in a conjugated state (48-hour collection period): 6.5%
- Ka (SAD 30 mg Fasted): 6.35 (CV: 676%) 1/h
- CL/F (SAD 30 mg fasted, n = 6, geometric mean (CV %)): 0.679 (9.0) L/h
- Ka (SAD 90 mg Fasted): 4.43 (CV: 222%) 1/h
- Ka (SAD 90 mg Fed): 0.89 1/h and 0.89 (CV: 68%) 1/h
- CL/F (SAD 90 mg fasted, n = 6, geometric mean (CV %)): 0.746 (10.1) L/h
- CL/F (SAD 90 mg fed, n = 3, geometric mean (CV %)): 0.747 (6.7) L/h
- Ka (SAD 270 mg Fasted): 1.92 (CV: 75%) 1/h
- Ka (SAD 270 mg Fed): 0.49 (CV: 9%) 1/h
- CL/F (SAD 270 mg fasted, n = 5, geometric mean (CV %)): 0.731 (16.2) L/h
- CL/F (SAD 270 mg fed, n = 5, geometric mean (CV %)): 0.733 (17.8) L/h
- food effect on overall exposure (SAD fed vs fasted, food lowered Cmax and prolonged Tmax): overall exposure was not affected
- leriglitazone converted to M3 (from individual phase 1 plasma PK data): up to 51%
- Vd (30 mg, SAD 30 mg Fasted, per kg body weight, read-out: Vss): 0.29 L/kg
- Vd (30 mg, SAD 30 mg Fasted, read-out: Vss): 23.1 L
- Tmax (30 mg, SAD 30 mg fasted, n = 6, Median, read-out: Tmax): 0.63 h
- Vd/F (30 mg, SAD 30 mg fasted, n = 6, geometric mean (CV %)): 23.2 L
- AUC (30 mg, SAD 30 mg fasted, n = 6, geometric mean, read-out: AUC): 44.2 µg·h/mL
- Cmax (30 mg, SAD 30 mg fasted, n = 6, plasma total, geometric mean (CV %), read-out: Cmax): 1700 ng/mL
- AUC (30 mg, single dose 30 mg Fasted, read-out: AUC, Observed): 44.2 µg·h/mL
- Cmax (30 mg, single dose 30 mg Fasted, read-out: Cmax, Observed): 1700 ng/mL
- Tmax (30 mg, single dose 30 mg Fasted, read-out: Tmax, Observed): 0.63 h
- Vd (90 mg, SAD 90 mg Fasted, per kg body weight, read-out: Vss): 0.31 L/kg
- Vd (90 mg, SAD 90 mg Fasted, read-out: Vss): 25.2 L
- Vd (90 mg, SAD 90 mg Fed, per kg body weight, read-out: Vss): 0.35 L/kg
- Vd (90 mg, SAD 90 mg Fed, read-out: Vss): 28.1 L
- Tmax (90 mg, SAD 90 mg fasted, n = 6, Median, read-out: Tmax): 0.88 h
- AUC(0-t) (90 mg, SAD 90 mg fasted, n = 6, geometric mean): 117 µg·h/mL
- Vd/F (90 mg, SAD 90 mg fasted, n = 6, geometric mean (CV %)): 26.1 L
- AUC (90 mg, SAD 90 mg fasted, n = 6, geometric mean, read-out: AUC): 121 µg·h/mL
- Cmax (90 mg, SAD 90 mg fasted, n = 6, plasma total, geometric mean (CV %), read-out: Cmax): 4430 ng/mL
- Tmax (90 mg, SAD 90 mg fed, n = 3, Median, read-out: Tmax): 3 h
- AUC(0-t) (90 mg, SAD 90 mg fed, n = 3, geometric mean): 116 µg·h/mL
- Vd/F (90 mg, SAD 90 mg fed, n = 3, geometric mean (CV %)): 27.8 L
- AUC (90 mg, SAD 90 mg fed, n = 3, geometric mean, read-out: AUC): 121 µg·h/mL
- Cmax (90 mg, SAD 90 mg fed, n = 3, plasma total, geometric mean (CV %), read-out: Cmax): 3170 ng/mL
- AUC (90 mg, single dose 90 mg Fasted, read-out: AUC, Observed): 121 µg·h/mL
- Cmax (90 mg, single dose 90 mg Fasted, read-out: Cmax, Observed): 4430 ng/mL
- Tmax (90 mg, single dose 90 mg Fasted, read-out: Tmax, Observed): 0.88 h
- AUC (90 mg, single dose 90 mg Fed, read-out: AUC, Observed): 121 µg·h/mL
- Cmax (90 mg, single dose 90 mg Fed, read-out: Cmax, Observed): 3170 ng/mL
- Tmax (90 mg, single dose 90 mg Fed, read-out: Tmax, Observed): 3 h
- Vd (270 mg, SAD 270 mg Fasted, per kg body weight, read-out: Vss): 0.27 L/kg
- Vd (270 mg, SAD 270 mg Fasted, read-out: Vss): 22.7 L
- Vd (270 mg, SAD 270 mg Fed, per kg body weight, read-out: Vss): 0.3 L/kg
- Vd (270 mg, SAD 270 mg Fed, read-out: Vss): 24.4 L
- Tmax (270 mg, SAD 270 mg fasted, n = 5, Median, read-out: Tmax): 1.5 h
- Vd/F (270 mg, SAD 270 mg fasted, n = 5, geometric mean (CV %)): 24 L
- Tmax (270 mg, SAD 270 mg fed, n = 5, Median, read-out: Tmax): 4 h
- AUC(0-t) (270 mg, SAD 270 mg fed, n = 5, geometric mean): 357 µg·h/mL
- Vd/F (270 mg, SAD 270 mg fed, n = 5, geometric mean (CV %)): 24.9 L
- AUC (270 mg, SAD 270 mg fed, n = 5, geometric mean, read-out: AUC): 368 µg·h/mL
- Cmax (270 mg, SAD 270 mg fed, n = 5, plasma total, geometric mean (CV %), read-out: Cmax): 11500 ng/mL
- Vd (270 mg, SAD Fasted doses 30, 90, 270 mg, read-out: Vss, Mean): 0.29 L/kg
- Vd (270 mg, SAD Fed doses 90, 270 mg, read-out: Vss, Mean): 0.32 L/kg
- Tmax (270 mg, SAD fasting conditions, 30, 90 and 270 mg, read-out: Tmax, range): 0.25 to 2.5 h
- Tmax (270 mg, SAD fed conditions, 90 and 270 mg, read-out: Tmax): 3 to 6 h
Compound: CC(O)c1ccc(CCOc2ccc(CC3SC(=O)NC3=O)cc2)nc1 (centres unmarked) [Leriglitazone, 5-[[4-[2-[5-(1-hydroxyethyl)pyridin-2-yl]ethoxy]phenyl]methyl]-1,3-thiazolidine-2,4-dione]
- dose proportionality of AUC (SAD 30, 90 and 270 mg): AUC increased proportionally with the dose
